As for `Cc1oc(-c2ccc(F)cc2)cc1COc1cccc(C(C)SC(C)(C)C(=O)O)c1` (stereo not drawn) [Example 6(65), 2-{[1-(3-{[5-(4-Fluorophenyl)-2-methyl-3-furyl]methoxy}phenyl)ethyl]thio}-2-methylpropionic acid], the melting point – broadly, the temperature, or range, at which the solid turns liquid – is 89 to 90 °C.
Then `Cc1oc(-c2ccc(C(F)(F)F)cc2)cc1COc1cccc(C(C)SC(C)(C)C(=O)O)c1` (stereo not drawn) [Example 6(66), 2-Methyl-2-({1-[3-({2-methyl-5-[4-(trifluoromethyl)phenyl]-3-furyl}methoxy)phenyl]ethyl}thio)propionic acid], with 75 to 77 °C.
Compound `Cc1oc(-c2ccc(C(F)(F)F)cc2)cc1COc1ccc(OC(C)(C)C(=O)O)c(F)c1` [Example 6(68), 2-[2-Fluoro-4-({2-methyl-5-[4-(trifluoromethyl)phenyl]-3-furyl}methoxy)phenoxy]-2-methylpropionic acid] showed a melting point of 82 to 83 °C.
With `Cc1oc(-c2ccc(C(F)(F)F)cc2)cc1COc1cccc(COC(C)(C)C(=O)O)c1` [Example 6(70), 2-Methyl-2-{[3-({2-methyl-5-[4-(trifluoromethyl)phenyl]-3-furyl}methoxy)benzyl]oxy}propionic acid] the figure was 95 to 96 °C; with `CCC(Cc1ccc(OCc2cc(-c3ccc(C(F)(F)F)cc3)oc2C)cc1C)C(=O)O` (stereo not drawn) [Example 6(75), 2-[2-Methyl-4-({2-methyl-5-[4-(trifluoromethyl)phenyl]-3-furyl}methoxy)benzyl]butanoic acid], 118 to 119 °C; with `Cc1cc(OCc2cc(-c3ccc(C(F)(F)F)cc3)oc2C)ccc1CC(C)C(=O)O` (stereo not drawn) [Example 6(76), 2-Methyl-3-[2-methyl-4-({2-methyl-5-[4-(trifluoromethyl)phenyl]-3-furyl}methoxy)phenyl]propionic acid], 96 to 97 °C.
Then `COC(Cc1ccc(OCc2cc(-c3ccc(C(F)(F)F)cc3)oc2C)cc1C)C(=O)O` (stereo not drawn) [Example 6(77), 2-Methoxy-3-[2-methyl-4-({2-methyl-5-[4-(trifluoromethyl)phenyl]-3-furyl}methoxy)phenyl]propionic acid], with 125 to 126 °C; and `Cc1oc(-c2ccc(C(F)(F)F)cc2)cc1COc1ccc(CC(C)(C)C(=O)O)cc1` [Example 6(78), 2,2-Dimethyl-3-[4-({2-methyl-5-[4-(trifluoromethyl)phenyl]-3-furyl}methoxy)phenyl]propionic acid], with 125 to 127 °C.
Then `COc1cc(CC(=O)O)ccc1OCc1cc(-c2ccc(C(F)(F)F)cc2)oc1C` [Example 6(81), [3-Methoxy-4-({2-methyl-5-[4-(trifluoromethyl)phenyl]-3-furyl}methoxy)phenyl]acetic acid], with 139 to 140 °C; and `COc1ccc(CCC(=O)O)cc1OCc1cc(-c2ccc(C(F)(F)F)cc2)oc1C` [Example 6(82), 3-[4-Methoxy-3-({2-methyl-5-[4-(trifluoromethyl)phenyl]-3-furyl}methoxy)phenyl]propionic acid], with 128 to 129 °C.
`Cc1oc(-c2ccc(C(F)(F)F)cc2)cc1CCOc1cccc(CC(=O)O)c1` [Example 6(83), [3-(2-{2-Methyl-5-[4-(trifluoromethyl)phenyl]-3-furyl}ethoxy)phenyl]acetic acid] showed a melting point of 92 to 94 °C.
Then `Cc1oc(-c2ccc(C(F)(F)F)cc2)cc1CCCOc1cccc(CC(=O)O)c1` [Example 6(84), [3-(3-{2-Methyl-5-[4-(trifluoromethyl)phenyl]-3-furyl}propoxy)phenyl]acetic acid], with 111 to 113 °C; and `Cc1oc(-c2ccc(C(F)(F)F)cc2)cc1COc1cccc(C(C)(C)C(=O)O)c1` [Example 6(85), 2-Methyl-2-[3-({2-methyl-5-[4-(trifluoromethyl)phenyl]-3-furyl}methoxy)phenyl]propionic acid], with 127 to 128 °C.
Take `Cc1oc(-c2ccc(C(F)(F)F)cc2)cc1COc1ccc(C(C)(C)C(=O)O)cc1` [Example 6(86), 2-Methyl-2-[4-({2-methyl-5-[4-(trifluoromethyl)phenyl]-3-furyl}methoxy)phenyl]propionic acid]: the melting point was 105 to 107 °C.
With `Cc1oc(-c2ccc(C(F)(F)F)cc2)cc1COc1cccc(OCC(=O)O)c1` [Example 6(87), [3-({2-Methyl-5-[4-(trifluoromethyl)phenyl]-3-furyl}methoxy)phenoxy]acetic acid] the figure was 118 to 119 °C; with `Cc1oc(-c2ccc(C(F)(F)F)cc2)cc1COc1ccc(SC(C)(C)C(=O)O)cc1` [Example 6(88), 2-Methyl-2-{[4-({2-methyl-5-[4-(trifluoromethyl)phenyl]-3-furyl}methoxy)phenyl]thio}propionic acid], 128 to 129 °C.
`Cc1oc(-c2ccc(C(F)(F)F)cc2)cc1COc1ccc2oc(CCC(=O)O)cc2c1` [Example 6(89), 3-[5-({2-Methyl-5-[4-(trifluoromethyl)phenyl]-3-furyl}methoxy)-1-benzofuran-2-yl]propionic acid] showed a melting point of 156 to 157 °C.
With `Cc1oc(-c2ccc(C(F)(F)F)cc2)cc1COc1ccc2oc(CC(=O)O)cc2c1` [Example 6(90), [5-({2-Methyl-5-[4-(trifluoromethyl)phenyl]-3-furyl}methoxy)-1-benzofuran-2-yl]acetic acid] the figure was 140 to 142 °C; with `CCCc1cc(OCc2cc(-c3ccc(C(F)(F)F)cc3)oc2C)ccc1CCC(=O)O` [Example 6(91), 3-[4-({2-Methyl-5-[4-(trifluoromethyl)phenyl]-3-furyl}methoxy)-2-propylphenyl]propionic acid], 129 to 131 °C; with `Cc1oc(-c2ccc(C(F)(F)F)cc2)cc1COc1ccc(OC(C)(C)C(=O)O)c(Cl)c1` [Example 6(92), 2-[2-Chloro-4-({2-methyl-5-[4-(trifluoromethyl)phenyl]-3-furyl}methoxy)phenoxy]-2-methylpropionic acid], 92 to 93 °C.
`CCc1oc(-c2ccc(C(F)(F)F)cc2)cc1CCCOc1ccc(CC(=O)O)cc1Cl` [Example 6(93), [3-Chloro-4-(3-{2-ethyl-5-[4-(trifluoromethyl)phenyl]-3-furyl}propoxy)phenyl]acetic acid] yielded a melting point of 112 to 113 °C.
With `Cc1oc(-c2ccc(C(F)(F)F)cc2)cc1COc1cc(CSC(C)(C)C(=O)O)ccc1F` [Example 6(94), 2-{[4-Fluoro-3-({2-methyl-5-[4-(trifluoromethyl)phenyl]-3-furyl}methoxy)benzyl]thio}-2-methylpropionic acid] the figure was 120 to 123 °C.
Compound `Cc1oc(-c2ccc(C(F)(F)F)cc2)cc1COc1ccc(F)c(CSC(C)(C)C(=O)O)c1` [Example 6(95), 2-{[2-Fluoro-5-({2-methyl-5-[4-(trifluoromethyl)phenyl]-3-furyl}methoxy)benzyl]thio}-2-methylpropionic acid] showed a melting point of 131 to 132 °C.
With `Cc1oc(-c2ccc(C(F)(F)F)cc2)cc1COc1cccc(CSC(C)(C)C(=O)O)c1F` [Example 6(96), 2-{[2-Fluoro-3-({2-methyl-5-[4-(trifluoromethyl)phenyl]-3-furyl}methoxy)benzyl]thio}-2-methylpropionic acid] the figure was 106 to 108 °C.

(Values after patent US7553867B2, “Furan or thiophene derivative and medicinal use thereof” (Takeda Pharmaceutical Company Limited, priority 2002, dated 2009).)
